Read-outs that look alike come from different tables or passages of the source.
How the values were obtained:
PHD2 (EGLN1) = PHD2 (EGLN1) (Homo sapiens (Human), UniProt Q9GZT9); assay: HIF-PH assay (14CO2 capture), PHD2 enzyme inhibition; format: biochemical; conditions: Table 1; individual measurement; read-out: IC50 (μM) PHD2
PHD1 (EGLN2) = PHD1 (EGLN2) (Homo sapiens (Human), UniProt Q96KS0); assay: HIF-PH assay (14CO2 capture), PHD1 enzyme inhibition; format: biochemical; conditions: for IC50: read-out: IC50 (μM) PHD1
[1] = Table 1, individual measurement
[2] = Table 1, ratio of the IC50 of the compound for each enzyme
[3] = Table 2 comparative data, IC50 PHD2/IC50 PHD1

PHD1 (EGLN2), sequence (Q96KS0 whole entry): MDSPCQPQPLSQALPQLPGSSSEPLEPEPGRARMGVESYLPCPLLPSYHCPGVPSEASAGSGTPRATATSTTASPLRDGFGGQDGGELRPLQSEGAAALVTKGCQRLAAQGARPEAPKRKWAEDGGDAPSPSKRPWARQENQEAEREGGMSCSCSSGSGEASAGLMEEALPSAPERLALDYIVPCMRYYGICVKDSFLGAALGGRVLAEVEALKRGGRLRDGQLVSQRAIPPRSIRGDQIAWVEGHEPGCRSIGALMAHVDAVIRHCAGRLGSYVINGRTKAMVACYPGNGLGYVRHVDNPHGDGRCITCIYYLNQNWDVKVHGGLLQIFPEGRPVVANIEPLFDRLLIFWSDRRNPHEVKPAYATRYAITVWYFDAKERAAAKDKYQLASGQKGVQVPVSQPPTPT
PHD2 (EGLN1), sequence (Q9GZT9 whole entry): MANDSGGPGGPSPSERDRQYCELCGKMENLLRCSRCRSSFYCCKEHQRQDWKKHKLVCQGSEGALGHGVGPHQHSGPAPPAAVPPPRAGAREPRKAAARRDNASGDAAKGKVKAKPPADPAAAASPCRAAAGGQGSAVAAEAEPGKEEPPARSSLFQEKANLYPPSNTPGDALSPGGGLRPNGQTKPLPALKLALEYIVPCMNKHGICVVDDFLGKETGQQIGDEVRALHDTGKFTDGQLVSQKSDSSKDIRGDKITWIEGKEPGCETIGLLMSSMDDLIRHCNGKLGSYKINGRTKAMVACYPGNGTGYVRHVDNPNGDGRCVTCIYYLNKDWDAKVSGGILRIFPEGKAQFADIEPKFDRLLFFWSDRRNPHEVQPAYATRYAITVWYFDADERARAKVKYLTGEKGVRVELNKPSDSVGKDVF

IC50 (PHD2 (EGLN1)) [µM]	IC50 (PHD1 (EGLN2); [1]) [µM]	PHD2/PHD1 (PHD1 (EGLN2); [2])	PHD2/PHD1 (PHD1 (EGLN2); [3])	Structure (SMILES)	PHD2/PHD1 (PHD1 (EGLN2))	IC50 (PHD1 (EGLN2)) [µM]
30.2	1.28	24	–	N#Cc1nc(C(=O)N[C@@H](CC(=O)O)c2ccccc2)c(O)c2ccc(Oc3ccccc3)cc12 [Compound 47, (S)-3-[(1-Cyano-4-hydroxy-7-phenoxy-isoquinoline-3-carbonyl)-amino]-3-phenyl-propionic acid]	–	–
2.18	0.31	7	–	CO[C@@H](CCNC(=O)c1nc(C#N)c2cc(Oc3ccccc3)ccc2c1O)C(=O)O [Compound 94, 4-[(1-Cyano-4-hydroxy-7-phenoxy-isoquinoline-3-carbonyl)-amino]-2-(S)-methoxy-butyric acid]	–	–
3.88	0.28	14	–	C[C@H](CNC(=O)c1nc(C#N)c2cc(Oc3ccccc3)ccc2c1O)C(=O)O [Compound 92, 3-[(1-Cyano-4-hydroxy-7-phenoxy-isoquinoline-3-carbonyl)-amino]-2-(R)-methyl-propionic acid]	–	–
12.6	0.93	14	–	C[C@H](CC(=O)O)NC(=O)c1nc(C#N)c2cc(Oc3ccccc3)ccc2c1O [Compound 64, 3-(R)-[(1-Cyano-4-hydroxy-7-phenoxy-isoquinoline-3-carbonyl)-amino]-butyric acid]	–	–
74.5	7.79	10	–	N#Cc1nc(C(=O)NC2(CC(=O)O)CCC2)c(O)c2ccc(Oc3ccccc3)cc12 [Compound 106, {1-[(1-Cyano-4-hydroxy-7-phenoxy-isoquinoline-3-carbonyl)-amino]-cyclobutyl}-acetic acid]	–	–
158	11.3	14	–	CC(C)(C)OC(=O)N1CCC(CC(=O)O)(NC(=O)c2nc(C#N)c3cc(Oc4ccccc4)ccc3c2O)CC1 [Compound 96, 4-Carboxymethyl-4-[(1-cyano-4-hydroxy-7-phenoxy-isoquinoline-3-carbonyl)-amino]-piperidine-1-carboxylic acid tert-butyl ester]	–	–
10.3	0.92	11	11	O=C(O)CCNC(=O)c1ncc2cc(Oc3ccccc3)ccc2c1O [Compound 1, 3-[(4-Hydroxy-7-phenoxy-isoquinoline-3-carbonyl)-amino]propionic acid]	–	–
52.7	3.02	17	–	O=C(NCC[C@H](O)C(=O)O)c1ncc2cc(Oc3ccccc3)ccc2c1O [Compound 7, 2-(S)-Hydroxy-4-[(4-hydroxy-7-phenoxy-isoquinoline-3-carbonyl)-amino]-butyric acid]	–	–
12.2	0.42	29	–	N#Cc1nc(C(=O)NCC(C(=O)O)C2CC2)c(O)c2ccc(Oc3ccccc3)cc12 (stereo not drawn) [Compound 166, 3-[(1-Cyano-4-hydroxy-7-phenoxy-isoquinoline-3-carbonyl)-amino]-2-cyclopropyl-propionic acid]	–	–
11.9	1.81	7	–	N#Cc1nc(C(=O)NCC(C(=O)O)c2ccccc2F)c(O)c2ccc(Oc3ccccc3)cc12 (stereo not drawn) [Compound 182, 3-[(1-Cyano-4-hydroxy-7-phenoxy-isoquinoline-3-carbonyl)-amino]-2-(2-fluoro-phenyl)-propionic acid]	–	–
181	23.7	8	–	CC(C)(CNC(=O)c1ncc2cc(Cc3ccccc3)ccc2c1O)C(=O)O [Compound 146, 3-[(7-Benzyl-4-hydroxy-isoquinoline-3-carbonyl)-amino]-2,2-dimethyl-propionic acid]	–	–
46.7	5.5	8	–	CC(C)(CNC(=O)c1ncc2cc(Oc3ccccc3)ccc2c1O)C(=O)O [Compound 2, 3-[(4-Hydroxy-7-phenoxy-isoquinoline-3-carbonyl)-amino]-2,2-dimethyl-propionic acid]	–	–
114	22.9	5	–	CC(C)(CNC(=O)c1ncc2cc(-c3ccc(F)cc3)ccc2c1O)C(=O)O [Compound 150, 3-{[7-(4-Fluoro-phenyl)-4-hydroxy-isoquinoline-3-carbonyl]-amino}-2,2-dimethyl-propionic acid]	–	–
200	7.21	28	–	CC(C)(CNC(=O)c1nc(-c2cncc(F)c2)c2cc(Oc3ccccc3)ccc2c1O)C(=O)O [Compound 136, 3-{[1-(5-Fluoro-pyridin-3-yl)-4-hydroxy-7-phenoxy-isoquinoline-3-carbonyl]-amino}-2,2-dimethyl-propionic acid]	–	–
37.8	3	13	–	O=C(O)CCNC(=O)c1ncc2cc(NC(=O)Nc3ccc(F)cc3)ccc2c1O [Compound 141, 3-({7-[3-(4-Fluoro-phenyl)-ureido]-4-hydroxy-isoquinoline-3-carbonyl}-amino)-propionic acid]	–	–
26.9	2.82	10	–	CC[C@H](CC(=O)O)NC(=O)c1nc(C#N)c2cc(Oc3ccccc3)ccc2c1O [Compound 63, 3-(R)-[(1-Cyano-4-hydroxy-7-phenoxy-isoquinoline-3-carbonyl)-amino]-pentanoic acid]	–	–
23.5	1.49	16	–	CC(C)(CNC(=O)c1nc(C#N)c2cc(OC3CCCCC3)ccc2c1O)C(=O)O [Compound 156, 3-[(1-Cyano-7-cyclohexyloxy-4-hydroxy-isoquinoline-3-carbonyl)-amino]-2,2-dimethyl-propionic acid]	–	–
56.6	1.37	41	41	CC(CC(=O)O)NC(=O)c1nc(C#N)c2cc(Oc3ccccc3)ccc2c1O (stereo not drawn) [Compound 11, 3-[(1-Cyano-4-hydroxy-7-phenoxy-isoquinoline-3-carbonyl)-amino]butyric acid]	–	–
33.3	3.27	10	–	CC(C)(CNC(=O)c1nc(C#N)c2cc(Oc3cccnc3)ccc2c1O)C(=O)O [Compound 27, 3{-[1-Cyano-4-hydroxy-7-(pyridin-3-yloxy)-isoquinoline-3-carbonyl]-amino}-2,2-dimethyl-propionic acid]	–	–
1.97	0.18	11	–	CC(C)(CNC(=O)c1nc(C#N)c2cc(Oc3cccc(Cl)c3)ccc2c1O)C(=O)O [Compound 39, 3-{[7-(3-Chloro-phenoxy)-1-cyano-4-hydroxy-isoquinoline-3-carbonyl]-amino}-2,2-dimethyl-propionic acid]	–	–
42.1	5.25	8	–	Cc1ccccc1Oc1ccc2c(C#N)nc(C(=O)NCC(C)(C)C(=O)O)c(O)c2c1 [Compound 155, 3-[(1-Cyano-4-hydroxy-6-o-tolyloxy-isoquinoline-3-carbonyl)-amino]-2,2-dimethyl-propionic acid]	–	–
3.73	0.27	14	–	N#Cc1nc(C(=O)NCCCCC(=O)O)c(O)c2ccc(Oc3ccc(F)cc3Cl)cc12 [Compound 98, 5-{[7-(2-Chloro-4-fluoro-phenoxy)-1-cyano-4-hydroxy-isoquinoline-3-carbonyl]-amino}-pentanoic acid]	–	–
30.4	6.4	5	–	Cc1cccc(C)c1Oc1ccc2c(C#N)nc(C(=O)NCCC(=O)O)c(O)c2c1 [Compound 109, 3{-[1-Cyano-6-(2,6-dimethyl-phenoxy)-4-hydroxy-isoquinoline-3-carbonyl]-amino}-propionic acid]	–	–
24.1	2.35	10	–	CC(C)(CNC(=O)c1nc(C#N)c2cc(NC(=O)NCc3ccccc3)ccc2c1O)C(=O)O [Compound 162, 3-{[7-(3-Benzyl-ureido)-1-cyano-4-hydroxy-isoquinoline-3-carbonyl]-amino}-2,2-dimethyl-propionic acid]	–	–
56.4	4.12	14	–	O=C(O)CCCNC(=O)c1ncc2cc(NC(=O)Nc3ccc(F)cc3)ccc2c1O [Compound 142, 4-([7-[3-(4-Fluoro-phenyl)-ureido]-4-hydroxy-isoquinoline-3-carbonyl]-amino)-butyric acid]	–	–
192	8.19	23	23	CC(C)(CC(=O)O)NC(=O)c1ncc2cc(Oc3ccccc3)ccc2c1O [Compound 6, 3-[(4-Hydroxy-7-phenoxy-isoquinoline-3-carbonyl)-amino]-3-methyl-butyric acid]	–	–
18.6	1.35	14	–	CC(C)(CNC(=O)c1nc(C#N)c2cc(Cc3ccccc3)ccc2c1O)C(=O)O [Compound 164, 3-[(7-Benzyl-1-cyano-4-hydroxy-isoquinoline-3-carbonyl)-amino]-2,2-dimethyl-propionic acid]	–	–
4.79	0.24	20	–	CC(C)(CNC(=O)c1nc(C#N)c2cc(Oc3ccccc3Cl)ccc2c1O)C(=O)O [Compound 38, 3-(7-(2-Chlorophenoxy)-1-cyano-4-hydroxyisoquinoline-3-carboxamido)-2,2-dimethylpropanoic acid]	–	–
3.5	0.74	5	–	CC(C)(CCCNC(=O)c1nc(C#N)c2cc(Oc3ccccc3)ccc2c1O)C(=O)O [Compound 95, 5-[(1-Cyano-4-hydroxy-7-phenoxy-isoquinoline-3-carbonyl)-amino]-2,2-dimethyl-pentanoic acid]	–	–
0.71	0.14	5	–	N#Cc1nc(C(=O)NCCCC(=O)O)c(O)c2ccc(Oc3ccccc3)cc12 [Compound 80, 4-[(1-Cyano-4-hydroxy-7-phenoxy-isoquinoline-3-carbonyl)-amino]-butyric acid]	–	–

Structure (SMILES)	IC50 (PHD2 (EGLN1)) [µM]	IC50 (PHD1 (EGLN2); [1]) [µM]	PHD2/PHD1 (PHD1 (EGLN2); [2])	PHD2/PHD1 (PHD1 (EGLN2); [3])	PHD2/PHD1 (PHD1 (EGLN2))	IC50 (PHD1 (EGLN2)) [µM]
CC(C)C(CC(=O)O)NC(=O)c1nc(C#N)c2cc(Oc3ccccc3)ccc2c1O (stereo not drawn) [Compound 61, 3-[(1-Cyano-4-hydroxy-7-phenoxy-isoquinoline-3-carbonyl)-amino]-4-methyl-pentanoic acid]	> 200	–	–	–	6	33.3

From US9409892B2, “4-hydroxy-isoquinoline compounds as HIF hydroxylase inhibitors” (FIBROGEN, INC., priority 2012, dated 2016)
